Assay results from US8618178B2, “Method and substances for treating T-cell mediated autoimmune diseases” (Eberhard-Karls-Universitaet Tuebingen Universitaetsklinikum, priority 2006, dated 2013).
“Also recorded” adds a separate entry of the source. Where a name gives a salt, the structure may show the parent alone.

How the values were obtained:
[1] = tested on: experimental autoimmune encephalomyelitis (EAE); test: Actively induced EAE in SJL mice, substance in the drinking water; type: in vivo; conditions: for course/severity of actively induced EAE: DMF 0.3 mg/ml or L-BSO 0.15 mg/ml in the drinking water; for survival of mice with actively induced EAE: substance in the drinking water
Method: Spleen and lymph node CD4^+ T cells were stimulated with PLP (proteolipid protein) peptide 139-151 (10 μg/ml) and stimulated for four days with irradiated SJL-APC in the presence or absence of L-BSO (0.5 mM, Sigma), expanded for three to four days and then restimulated for cytokine production (proteolipid protein is the commonest myelin protein in the central nervous system and plays an important part as an autoantigen in the onset of multiple sclerosis). Next, 10^7 sham (control) or L-BSO treated T cells were injected intraperitoneally into naive SJL mice and the EAE developing as a result was observed. […] Half of the group was fed daily for 14 days with DMF 0.3 mg/ml (Fluka) or L-BSO 0.15 mg/ml in the drinking water. For the cytokine analysis of PLP-specific T cells, the draining lymph nodes of the SJL mice were removed 6 days after the immunization and CD4^+ T cells antigen-specifically analyzed (ELISPOT). For this, ELISPOT plates (Millipore Corporation) were coated with anti-IFN-γ or anti-IL-4 antibodies overnight at 4° C., blocked after 12 hrs with PBS/10% FCS and, after the solution had been poured off, the isolated T lymphocytes were incubated with APC and medium alone or in the presence of PLP peptide. After the incubation time, the cells were poured off, and the plates washed with PBS/Tween and incubated with biotin-conjugated secondary antibodies. After further washing procedures and incubation with streptavidin-alkaline phosphatase (Boehringer), the plates were incubated with developer solution. After washing with H2O, the number of spots was determined in the ELISPOT reader (Biosys).
(§1) In order further to study whether GSH deprivation can also influence the differentiation and pathogenicity of autoreactive T cells in vivo, mice were fed with DMF or L-BSO in the drinking water, and the control group only with drinking water. Active EAE induction was effected on day 10 with PLP peptide in complete Freund's adjuvant (CFA) and pertussis toxin. The mice were examined daily regarding the course of the artificially triggered disease. Through the administration of L-BSO or DMF, the GSH levels in lymphoid organs and in the brain of immunized mice could be lowered (not shown). […] 6 days after immunization, the draining lymph nodes of the mice were analyzed. For this, the CD4^+ T cells were isolated and the cytokine production of PLP-specific T cells measured using ELISPOT after in vitro stimulation.

[2] = tested on: DC; test: Colorimetric determination of cellular GSH content of DC; type: cell-based, mouse; conditions: L-BSO 0.5 mM, DMF 70 μM, MMF 200 μM
Method: Cellular GSH and GSSG were determined in micro-titer plate assays using colorimetric methods. The cellular GHS content is determined as a percentage of the GSH levels in freshly prepared controls or as pmol 10^−6 cells. GSSG was not detectable.
As antigen presenting cells (APC), T cell depleted spleen cells from syngenic mice were used. Dendritic cells (DC) which were obtained from bone marrow (BMDC) and cultured with GM-CSF were used for the relevant experiments on day 7 of culturing. For the experiment, in each case an equal number of APC were cultured either with the medium alone, with L-BSO (C8H18N2O3S, 0.5 mM), dimethyl sulfoxide DMSO(C2H6OS), dimethyl fumarate DMF (C6H8O4, dissolved in DMSO, 70 μM), or calcium monomethyl fumarate (MMF; CaC10H10O8, 200 μM). All substances except for MMF (Fumapharm) were purchased from Sigma-Aldrich. At the respective stated times (see below) the cells were either analyzed directly for their GSH content, used for T cell stimulation or stimulated for […] with Escherichia coli lipopolysaccharides 055.B5 (Sigma-Aldrich) or CpG-DNA 1668 (MWG Biotech) and IL-4 (Stratmann). […]
For the testing of the potential of pharmaceutical substances to lower the glutathione content of cells, the following procedure was carried out: cells (antigen-presenting cells or dendritic cells) are incubated with different concentrations of the given pharmaceutical substance to be tested. Then, after an incubation time of 1 hr, 2 hrs, 24 hrs or 48 hrs, the glutathione content of the cells is determined in comparison to control cells. […]
The samples and the GSH standard were diluted in a microtiter plate and the assay reaction started by addition of a reaction mix which contains glutathione reductase. […] The rise in the extinction is measured at 405 nm at 30 sec intervals over 10 mins with a microtiter plate reader. The glutathione content was determined using a calibration curve. […] The protein content was determined by the method of Lowry (see for example, Dringen, et al., “Supply by Astrocytes of CysGly as Precursor for neuronal Glutathione”, J. Neurosci 19:562-569). […]

[3] = GSH levels in organs of immunized mice after feeding; type: in vivo; conditions: fed in the drinking water; data not shown
Text: as §1, with “stimulation. […] The pharmaceutical substances to be tested can also be analyzed ex vivo for their potential to deplete GSH. For this, after treatment of experimental mice, small tissue pieces are removed from the respective organs and placed in about 1 ml of 1% SSA. The tissue piece in SSA is homogenized using an ultrasonic probe. The further GSH and protein determination is effected according to the procedure described for APC and DC. Comparison with the GSH content of control cells or control tissue indicates the GSH-lowering action of the pharmaceutical substance to be tested.” for “stimulation.”

SMILES	course/severity of actively induced EAE [1]	survival of mice with actively induced EAE [1]	intracellular GSH content of DC [2]	GSH levels in lymphoid organs and in the brain of immunized mice [3]
COC(=O)/C=C/C(=O)OC [DMF, dimethyl fumarate]	markedly milder EAE; also recorded: protects actively immunized mice against the onset of severe encephalomyelitis	all mice survived	depletes the intracellular glutathione level; also recorded: marked decrease	lowered
CCCCS(=N)(=O)CCC(N)C(=O)O [L-BSO, L-buthionine sulfoximine]	markedly milder EAE; also recorded: markedly improved; also recorded: protects actively immunized mice against the onset of severe encephalomyelitis	all mice survived	depletes the intracellular glutathione level; also recorded: marked decrease	lowered
COC(=O)/C=C/C(=O)[O-].[Ca+] [MMF, calcium monomethyl fumarate]	–	–	depletes the intracellular glutathione level; also recorded: marked decrease	–
